Measurements reported in ChEMBL document CHEMBL1671860, “Role of Cj1211 in natural transformation and transfer of antibiotic resistance determinants in Campylobacter jejuni” (2008).
Converted amounts (≈) assume the structure as drawn. The source made the active and inactive calls. The rule behind the calls is not given here.

Tests used:
[1] = system: Campylobacter jejuni; assay: Antibacterial activity against Campylobacter jejuni JB201 infected in chicken assessed as decrease in bacterial colonization at 50 mg/L; type: functional, organism-based
[2] = system: Campylobacter; assay: Antibacterial activity against Campylobacter by Etest; type: functional
[3] = system: Campylobacter jejuni; assay: Antibacterial activity against Cj1211-positive Campylobacter jejuni harboring aphA3 and tet(O) genes; type: functional
[4] = system: Campylobacter jejuni; assay: Antibacterial activity against Cj1211-negative Campylobacter jejuni harboring aphA3 and tet(O) genes; type: functional

CCN1CCN(c2cc3c(cc2F)c(=O)c(C(=O)O)cn3C2CC2)CC1 was tested. Which Activity [1] did it give?
Its Activity is “Active”.

Which MIC [2] does the source give for O=C(O)c1cn(C2CC2)c2cc(N3CCNCC3)c(F)cc2c1=O [CIPROFLOXACIN] here?
Its MIC is over 32 µg/mL.

For NC[C@H]1O[C@H](O[C@H]2[C@H](O)[C@@H](O[C@H]3O[C@H](CO)[C@@H](O)[C@H](N)[C@H]3O)[C@H](N)C[C@@H]2N)[C@H](O)[C@@H](O)[C@@H]1O [KANAMYCIN], which MIC [3] is on record?
The MIC was over 256 µg/mL.

What about the MIC [4] of the same compound?
The MIC was over 256 µg/mL.

Which MIC [3] does the source give for CN(C)[C@@H]1C(O)=C(C(N)=O)C(=O)[C@@]2(O)C(O)=C3C(=O)c4c(O)cccc4[C@@](C)(O)[C@H]3C[C@@H]12 [TETRACYCLINE] here?
Its MIC is 16 µg/mL (≈ 36 µM).

And the MIC [4]?
The MIC was 16 µg/mL (≈ 36 µM).
